From patent publication US9730889B2, “Steroid-sparing effects of beta-adrenergic inverse agonists and uses thereof” (University of Houston System, priority 2011, dated 2017)
Like-named read-outs stand apart in the source and are kept apart here.

What was measured:
mucin content = conditions: previous study (19), cited from earlier work
BAL eosinophils = assay: BAL eosinophil numbers in OVA sensitized and challenged mice; type: in vivo, BALB/c mice
Source text: (§1) Six-week to eight-week-old BALB/c mice (Jackson Animal Laboratory, Bar Harbor, Me.) were housed under specific pathogen-free conditions.
(§2) Mice were immunized against allergen by means of sensitization (once weekly intraperitoneal injection on days 0, 7, and 14) and challenge (once daily intranasal instillation for 5 days on days 41-45) with ovalbumin (OVA) as described (FIG. 1) (19).
(§3) Untreated sensitized and challenged mice or mice that had not undergone the sensitization and challenge process, received vehicle and were fed with normal mouse chow. […] Experimental mice were sacrificed on day 46.
Brochoalveolar lavage (BAL) fluid was acquired via infusion and recovery of cold PBS (2×1 ml) through the tracheal cannula from euthanized (pentobarbital 0.1 ml of 65 mg/ml) mice. Brochoalveolar lavage total leukocyte count and differentiated cell counts were performed as described (19).
Leukocytes and cytokines were measured in BAL fluid of OVA-sensitized mice 24 hours after the last of five daily nasal challenges with OVA (FIG. 1).

cytokines in BAL fluid = assay: Cytokines in BAL fluid of OVA sensitized and challenged mice (multiplex ELISA); type: in vivo, BALB/c mice; conditions: Dex 4.0 mg/kg/day, Nad 250 ppm, 24 h after last OVA challenge
Source text: as §1, §2, §3
The supernatants from brochoalveolar lavage samples, collected 24 hours after the last challenge with OVA, were provided to Pierce Searchlight, Aushon BioSystems, Inc. in blinded fashion. The concentrations of eotaxin, macrophage-derived chemokine (MDC), thymus and activation regulated chemokine (TARC), interleukin (IL)-1α, IL-5, IL-6, IL-12p70, IL-13, IL-17, IL-23, interferon (IFN), tumor necrosis factor alpha (TNF-a) and transforming growth factor beta (TGF-β1) were measured using multiplex enzyme-linked immunosorbent assay.
Definition of abbreviations in Table 1 are Th1/2/17=T helper (1, 2, or 17) type inflammation; MDC=macrophage-derived chemokine; TARC=thymus and activation regulated chemokine; IL=interleukin-1a, IL-5, IL-6, IL-12p70, IL-13, IL-17, IL-23; IFNγ=interferon gamma; TNFα=tumor necrosis factor alpha; TGFβ1=transforming growth factor betal. The percentage from No Rx is in comparison to No OVA for each cytokine, while percentage of each drug treatment group [Dex (4.0 mg/kg/day); Nad (250 ppm); and Dex+Nad (0.4 mg/kg/day+25 ppm)] is in comparison to No Rx. Values are the means±SEM of data from 4 mice in each group (n=4); and *, indicate significant difference compared to No Rx, P<0.05.

[1] = test system: airway hyperresponsiveness; conditions: mild asthmatics, dose escalation protocol; cited from earlier work
[2] = test system: mucin content in the airway epithelium; assay: Airway epithelial mucin content (PAFS staining, mucin volume density) in OVA sensitized and challenged mice; type: in vivo, BALB/c mice; conditions: for reduction in mucin content: high dose: dexamethasone 4 mg/kg/day
Source text: as §1, §2, §3
Lungs were perfused with 4% paraformaldehyde in PBS (pH 7.0) via a tracheal cannula at room temperature, then removed from the thoracic cavity and further fixed overnight at 4° C. (25). After overnight fixation, lungs were embedded in paraffin and then sectioned and stained with periodic acid fluorescent Schiff's (PAFS) reagent to examine intracellular mucin. Tissue sections were examined under a 40× objective and images (MagnaFire 2.1 Optronics) were acquired prior to any measurements and analyzed (ImagePro Plus) by blinded investigators (25).

[3] = intermediate doses: dexamethasone 0.4 mg/kg/day IP 8 days, nadolol 25 ppm in chow 28 days, BAL 24 h after last OVA challenge
[4] = low doses: dexamethasone 0.1 mg/kg/day IP 8 days, nadolol 5 ppm in chow 28 days, BAL 24 h after last OVA challenge

Row | SMILES | reduction in eosinophils (BAL eosinophils; [3]) [%] | reduction in eosinophils (BAL eosinophils; [4]) [%] | IL-1a, percentage in comparison to No Rx (cytokines in BAL fluid) | IL-5, percentage in comparison to No Rx (cytokines in BAL fluid) | IL-6, percentage in comparison to No Rx (cytokines in BAL fluid) | IL-12p70, percentage in comparison to No Rx (cytokines in BAL fluid) | IL-13, percentage in comparison to No Rx (cytokines in BAL fluid) | IL-17, percentage in comparison to No Rx (cytokines in BAL fluid) | IL-23, percentage in comparison to No Rx (cytokines in BAL fluid) | MDC, percentage in comparison to No Rx (cytokines in BAL fluid) | TARC, percentage in comparison to No Rx (cytokines in BAL fluid) | TGFβ1, percentage in comparison to No Rx (cytokines in BAL fluid) | TNFa, percentage in comparison to No Rx (cytokines in BAL fluid) | eotaxin, percentage in comparison to No Rx (cytokines in BAL fluid) | IFNg level in BAL fluid (cytokines in BAL fluid; mean ± SEM, n=4) [pg/mL] | IL-1a level in BAL fluid (cytokines in BAL fluid; mean ± SEM, n=4) [pg/mL] | IL-5 level in BAL fluid (cytokines in BAL fluid; mean ± SEM, n=4) [pg/mL] | IL-6 level in BAL fluid (cytokines in BAL fluid; mean ± SEM, n=4) [pg/mL] | IL-12p70 level in BAL fluid (cytokines in BAL fluid; mean ± SEM, n=4) [pg/mL] | IL-13 level in BAL fluid (cytokines in BAL fluid; mean ± SEM, n=4) [pg/mL] | further results
1 | CC(C)(C)NCC(O)COc1cccc2c1CC(O)C(O)C2 (stereo not shown) [nadolol] | 36 | 20 | (73%) | (56%)* | (88%) | (140%) | (13%)* | (50%) | (76%) | (27%)* | (19%)* | (45%)* | (53%)* | (80%) | 7 ± 1.1 | 11 ± 5.0 | 118 ± 33.0 | 21 ± 10.0 | 7 ± 1.0 | 6 ± 2.0 | reduction in mucin content (mucin content; 7 days of treatment with nadolol): very modest reduction; reduction in mucin content (mucin content; 28 days of treatment with nadolol): ~90%; maximal reductions in airway eosinophilia from OVA S/C (BAL eosinophils; nadolol 250 ppm, detected at day 7 of treatment): ~50%; IL-17 level in BAL fluid (cytokines in BAL fluid; mean ± SEM, n=4): 1 ± 0.2 pg/mL; IL-23 level in BAL fluid (cytokines in BAL fluid; mean ± SEM, n=4): 28 ± 4.3 pg/mL; TARC level in BAL fluid (cytokines in BAL fluid; mean ± SEM, n=4): 593 ± 223.5 pg/mL; TGFβ1 level in BAL fluid (cytokines in BAL fluid; mean ± SEM, n=4): 5891 ± 710 pg/mL; TNFa level in BAL fluid (cytokines in BAL fluid; mean ± SEM, n=4): 33 ± 8.0 pg/mL; eotaxin level in BAL fluid (cytokines in BAL fluid; mean ± SEM, n=4): 36 ± 6.0 pg/mL; airway hyperresponsiveness [1]: reduction in airway hyperresponsiveness; change in mucin content ([2]; all doses of chronic nadolol (5, 25, 250 ppm)): significant decreases; reduction in mucin content ([2]; nadolol 250 ppm): 86%; mucin volume density after 7 days of treatment vs vehicle treated control mice ([2]; nadolol 250 ppm, 7 days): significant reductions; day at which maximal effect on mucin volume density is achieved ([2]; nadolol 250 ppm, time course): 22 days
2 | C[C@@H]1C[C@H]2[C@@H]3CCC4=CC(=O)C=C[C@]4(C)[C@@]3(F)[C@@H](O)C[C@]2(C)[C@@]1(O)C(=O)CO [dexamethasone] | 58 | 36 | (233%)* | (30%)* | (163%) | (180%) | (27%)* | (0) % | (200%) | (5%)* | (15%)* | (35%)* | (23%)* | (27%)* | 90 ± 1.1 | 35 ± 7.1 | 63 ± 19.3 | 39 ± 28.2 | 9 ± 1.3 | 12 ± 5.0 | reduction in eosinophils (BAL eosinophils; high-dose dexamethasone 4.0 mg/kg/day IP 8 days): 89%; IFNg, percentage in comparison to No Rx (cytokines in BAL fluid): (1500%); IL-17 level in BAL fluid (cytokines in BAL fluid; mean ± SEM, n=4): 2 ± 0.4 pg/mL; IL-23 level in BAL fluid (cytokines in BAL fluid; mean ± SEM, n=4): 74 ± 10.0 pg/mL; MDC level in BAL fluid (cytokines in BAL fluid; mean ± SEM, n=4): 10 ± 1.0 pg/mL; TARC level in BAL fluid (cytokines in BAL fluid; mean ± SEM, n=4): 475 ± 47.0 pg/mL; TGFβ1 level in BAL fluid (cytokines in BAL fluid; mean ± SEM, n=4): 4675 ± 792 pg/mL; TNFa level in BAL fluid (cytokines in BAL fluid; mean ± SEM, n=4): 14 ± 1.0 pg/mL; eotaxin level in BAL fluid (cytokines in BAL fluid; mean ± SEM, n=4): 12 ± 2.0 pg/mL; reduction in mucin content ([2]; nadolol 250 ppm): 72%
